Source: ChEMBL document CHEMBL1201862, “PubChem BioAssay data set” (2004)
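Step 1: Grow cells in 96-well plates. Step 2: Expose to compound for 48 hours at 5 concentrations. Step 3: Interpolate endpoints linearly; if unreached, use highest concentration. The concentration for 50% growth inhibition is given as GI50.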 Active and inactive are the calls of the source. Cut-off read from the data, not from the text of the source: active = GI50 up to about 1.1 µM and inactive = higher.

Columns and labels:
Assay in all cases: NCI tumour cell line growth inhibition, 48 h
[1] = system: SK-MEL-2
[2] = system: HOP-62
[3] = system: M14
[4] = system: TK-10
[5] = system: HOP-92
[6] = system: MDA-MB-231
[7] = system: HCT-116
[8] = system: SK-MEL-5
[9] = system: A498
[10] = system: OVCAR-3
[11] = system: LOX IMVI
[12] = system: NCI/ADR-RES
[13] = system: HT-29
[14] = system: Hs-578T
[15] = system: OVCAR-8
[16] = system: RPMI-8226
[17] = system: SF-295
[18] = system: PC-3
[19] = system: MDA-MB-435
[20] = system: OVCAR-4
[21] = system: UO-31
[22] = system: UACC-257
[23] = system: HCT-15
[24] = system: BT-549
[25] = system: MDA-N
[26] = system: SR
[27] = system: RXF 393
[28] = system: MOLT-4
[29] = system: NCI-H226
[30] = system: CAKI-1
[31] = system: NCI-H460
[32] = system: NCI-H522
[33] = system: SW-620
[34] = system: Malme-3M
[35] = system: UACC-62
[36] = system: K562
[37] = system: HCC 2998
[38] = system: COLO 205
[39] = system: SF-268
[40] = system: OVCAR-5
[41] = system: SF-539
[42] = system: KM12
[43] = system: DU-145
[44] = system: SNB-75
[45] = system: MCF7
[46] = system: SN12C
[47] = system: T47D
[48] = system: EKVX
[49] = system: 786-0
[50] = system: ACHN
[51] = system: CCRF-CEM
[52] = system: A549
[53] = system: SK-OV-3
[54] = system: U-251
[55] = system: SNB-19
[56] = system: SK-MEL-28
[57] = system: NCI-H23
[58] = system: IGROV-1
[59] = system: HL-60

Structure (SMILES): CCOC(=O)c1c(N2CCCC2)[nH]c(=O)c(C(c2cccs2)c2c(O)c(C(=O)OCC)c(N3CCCC3)[nH]c2=O)c1O
- GI50 [1]: > 100 µM (inactive)
- GI50 [2]: > 100 µM (inactive)
- GI50 [3]: > 100 µM (inactive)
- GI50 [4]: > 100 µM (inactive)
- GI50 [5]: > 100 µM (inactive)
- GI50 [6]: > 100 µM (inactive)
- GI50 [7]: > 100 µM (inactive)
- GI50 [8]: > 100 µM (inactive)
- GI50 [9]: > 100 µM (inactive)
- GI50 [10]: > 100 µM (inactive)
- GI50 [11]: > 100 µM (inactive)
- GI50 [12]: > 100 µM (inactive)
- GI50 [13]: > 100 µM (inactive)
- GI50 [14]: > 100 µM (inactive)
- GI50 [15]: > 100 µM (inactive)
- GI50 [16]: 54.6 µM (inactive)
- GI50 [17]: > 100 µM (inactive)
- GI50 [18]: > 100 µM (inactive)
- GI50 [19]: > 100 µM (inactive)
- GI50 [20]: > 100 µM (inactive)
- GI50 [21]: > 100 µM (inactive)
- GI50 [22]: > 100 µM (inactive)
- GI50 [23]: > 100 µM
- GI50 [24]: > 100 µM (inactive)
- GI50 [25]: > 100 µM (inactive)
- GI50 [26]: > 100 µM (inactive)
- GI50 [27]: > 100 µM (inactive)
- GI50 [28]: > 100 µM (inactive)
- GI50 [29]: > 100 µM (inactive)
- GI50 [30]: > 100 µM (inactive)
- GI50 [31]: > 100 µM (inactive)
- GI50 [32]: > 100 µM (inactive)
- GI50 [33]: > 100 µM (inactive)
- GI50 [34]: > 100 µM (inactive)
- GI50 [35]: > 100 µM (inactive)
- GI50 [36]: > 100 µM (inactive)
- GI50 [37]: > 100 µM (inactive)
- GI50 [38]: > 100 µM (inactive)
- GI50 [39]: > 100 µM (inactive)
- GI50 [40]: > 100 µM (inactive)
- GI50 [41]: > 100 µM (inactive)
- GI50 [42]: > 100 µM (inactive)
- GI50 [43]: > 100 µM (inactive)
- GI50 [44]: > 100 µM (inactive)
- GI50 [45]: > 100 µM (inactive)
- GI50 [46]: > 100 µM (inactive)
- GI50 [47]: > 100 µM (inactive)
- GI50 [48]: > 100 µM (inactive)
- GI50 [49]: > 100 µM (inactive)
- GI50 [50]: > 100 µM (inactive)
- GI50 [51]: 78.2 µM (inactive)
- GI50 [52]: > 100 µM (inactive)
- GI50 [53]: > 100 µM (inactive)
- GI50 [54]: > 100 µM (inactive)
- GI50 [55]: > 100 µM (inactive)
- GI50 [56]: > 100 µM (inactive)
- GI50 [57]: > 100 µM (inactive)

Structure (SMILES): CC1(C)[C@@H](Cn2cnc3c(N)ncnc32)CC[C@@]1(C)CO
- GI50 [2]: > 100 µM (inactive)
- GI50 [3]: > 100 µM (inactive)
- GI50 [4]: > 100 µM (inactive)
- GI50 [5]: > 100 µM (inactive)
- GI50 [6]: > 100 µM (inactive)
- GI50 [7]: 44.9 µM (inactive)
- GI50 [8]: 60.7 µM (inactive)
- GI50 [9]: > 100 µM (inactive)
- GI50 [10]: 73.6 µM (inactive)
- GI50 [11]: > 100 µM (inactive)
- GI50 [12]: 84.5 µM (inactive)
- GI50 [13]: 39.4 µM (inactive)
- GI50 [14]: > 100 µM (inactive)
- GI50 [15]: > 100 µM (inactive)
- GI50 [58]: 42.7 µM (inactive)
- GI50 [17]: 38.8 µM (inactive)
- GI50 [18]: 66.2 µM (inactive)
- GI50 [19]: 45.6 µM (inactive)
- GI50 [20]: > 100 µM (inactive)
- GI50 [21]: 81.1 µM (inactive)
- GI50 [22]: 67.1 µM (inactive)
- GI50 [23]: 51.1 µM
- GI50 [24]: > 100 µM (inactive)
- GI50 [25]: 50 µM (inactive)
- GI50 [26]: 11.9 µM (inactive)
- GI50 [27]: > 100 µM (inactive)
- GI50 [28]: 11.9 µM (inactive)
- GI50 [59]: 40.1 µM (inactive)
- GI50 [29]: 40.3 µM (inactive)
- GI50 [30]: > 100 µM (inactive)
- GI50 [31]: > 100 µM (inactive)
- GI50 [32]: 41.3 µM (inactive)
- GI50 [33]: 82.8 µM (inactive)
- GI50 [34]: > 100 µM (inactive)
- GI50 [35]: 32 µM (inactive)
- GI50 [36]: 17.3 µM (inactive)
- GI50 [37]: 53 µM (inactive)
- GI50 [38]: 71.9 µM (inactive)
- GI50 [39]: > 100 µM (inactive)
- GI50 [40]: 83.4 µM (inactive)
- GI50 [42]: 27.4 µM (inactive)
- GI50 [43]: > 100 µM (inactive)
- GI50 [44]: > 100 µM (inactive)
- GI50 [45]: 74.1 µM (inactive)
- GI50 [46]: > 100 µM (inactive)
- GI50 [47]: > 100 µM (inactive)
- GI50 [48]: > 100 µM (inactive)
- GI50 [49]: > 100 µM (inactive)
- GI50 [50]: 81.5 µM (inactive)
- GI50 [51]: 51.9 µM (inactive)
- GI50 [52]: > 100 µM (inactive)
- GI50 [53]: > 100 µM (inactive)
- GI50 [54]: > 100 µM (inactive)
- GI50 [55]: > 100 µM (inactive)
- GI50 [56]: > 100 µM (inactive)
- GI50 [57]: 55 µM (inactive)

Structure (SMILES): C[N+]1(C(CO)Cc2c[nH]c3ccccc23)Cc2ccccc2C1 (stereo unspecified)
- GI50 [1]: > 100 µM (inactive)
- GI50 [2]: > 100 µM (inactive)
- GI50 [3]: 35.8 µM (inactive)
- GI50 [4]: > 100 µM (inactive)
- GI50 [5]: 92.5 µM (inactive)
- GI50 [6]: > 100 µM (inactive)
- GI50 [7]: > 100 µM (inactive)
- GI50 [8]: 32.6 µM (inactive)
- GI50 [9]: 66.5 µM (inactive)
- GI50 [10]: > 100 µM (inactive)
- GI50 [11]: > 100 µM (inactive)
- GI50 [12]: > 100 µM (inactive)
- GI50 [13]: 92.3 µM (inactive)
- GI50 [14]: > 100 µM (inactive)
- GI50 [15]: > 100 µM (inactive)
- GI50 [16]: 76.6 µM (inactive)
- GI50 [58]: > 100 µM (inactive)
- GI50 [17]: > 100 µM (inactive)
- GI50 [18]: > 100 µM (inactive)
- GI50 [19]: > 100 µM (inactive)
- GI50 [20]: > 100 µM (inactive)
- GI50 [21]: > 100 µM (inactive)
- GI50 [22]: 44 µM (inactive)
- GI50 [23]: > 100 µM
- GI50 [24]: 77.6 µM (inactive)
- GI50 [25]: > 100 µM (inactive)
- GI50 [26]: > 100 µM (inactive)
- GI50 [27]: > 100 µM (inactive)
- GI50 [28]: > 100 µM (inactive)
- GI50 [59]: > 100 µM (inactive)
- GI50 [29]: > 100 µM (inactive)
- GI50 [30]: > 100 µM (inactive)
- GI50 [31]: > 100 µM (inactive)
- GI50 [32]: 49.3 µM (inactive)
- GI50 [33]: > 100 µM (inactive)
- GI50 [34]: 13.7 µM (inactive)
- GI50 [35]: > 100 µM (inactive)
- GI50 [36]: 89.7 µM (inactive)
- GI50 [37]: > 100 µM (inactive)
- GI50 [38]: > 100 µM (inactive)
- GI50 [39]: > 100 µM (inactive)
- GI50 [40]: 89.3 µM (inactive)
- GI50 [42]: > 100 µM (inactive)
- GI50 [43]: > 100 µM (inactive)
- GI50 [44]: > 100 µM (inactive)
- GI50 [45]: > 100 µM (inactive)
- GI50 [46]: > 100 µM (inactive)
- GI50 [47]: > 100 µM (inactive)
- GI50 [48]: 62.4 µM (inactive)
- GI50 [49]: > 100 µM (inactive)
- GI50 [50]: > 100 µM (inactive)
- GI50 [51]: > 100 µM (inactive)
- GI50 [52]: 59.4 µM (inactive)
- GI50 [53]: > 100 µM (inactive)
- GI50 [54]: > 100 µM (inactive)
- GI50 [55]: > 100 µM (inactive)
- GI50 [56]: 31.7 µM (inactive)
- GI50 [57]: > 100 µM (inactive)
